The text below walks through data of PubChem BioAssay AID743394 (Broad Institute, 2014).

Activity calls are given as the source filed them.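 The calls were made as follows: active = 40% activation versus positive control reached by fitted dose-response curve at or below highest valid tested dose; inconclusive = poor fit quality, or flat fit with activation between 30% and 70%; inactive = the rest.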

The first assay in a line: inactive X chromosome reactivation in XiGFP fibroblasts, dose response, imaging, 68-5-11 mouse fibroblasts, GFP, cherry-pick (AID 743394).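 Also: sensitizer 5-aza-dC present in the wells at 0.5 mM final.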 Conditions: 68-5-11 mouse fibroblast XiGFP reporter, % GFP-positive imaging, 3 d; at 19.5 µM (top of the series).
Take `O=C(Cc1ccccn1)N1CCCCN2[C@H](C1)[C@@H](c1ccc(-c3ccccc3F)cc1)[C@@H]2CO`: the activation is 1.33% (inactive).

For `COP(=S)(OC)Oc1ccc(Sc2ccc(OP(=S)(OC)OC)cc2)cc1`, the activation was 0.028% (inactive).

Consider `C[n+]1c(-c2ccccc2)c2cc(N)ccc2c2ccc(N)cc21`, for which the activation is 1.19% (inactive).

Turning to `O=[N+]([O-])c1ccc(O)c([N+](=O)[O-])c1`, the activation is -0.014% (inactive).

The assay is the same for the next values; noted with them: 68-5-11 mouse fibroblast XiGFP reporter, % GFP-positive imaging, 3 d; at 19.5 µM (top of the series); cells co-treated with 5-aza-dC sensitizer; scaled: neutral wells 0, ellipticine wells 100.
Regarding `Cc1ccc(C)c(OCCC(=O)Nc2cc(S(=O)(=O)N3CCCCC3)ccc2C)c1`, the activation was -0.008% (inactive).

Take `COc1ccc(-c2ccc(C#N)c(SCC(=O)NCc3ccco3)n2)cc1OC`: the activation was 2.59% (inactive).

For the molecule `COc1ccc2nc(SCC(=O)Nc3ccccc3OC)[nH]c2c1`, the activation is -0.024% (inactive).

Take `COc1ccc(NC(=O)Nc2ccc3c(c2)C(=O)N([C@H](C)CO)C[C@H](C)[C@H](CN(C)Cc2ccc4c(c2)OCO4)O3)cc1`: the activation is -0.031% (inactive).

Regarding `C[C@@H]1CN([C@H](C)CO)C(=O)c2cc(NS(=O)(=O)c3ccccc3)ccc2O[C@@H](C)CCCCO[C@@H]1CN(C)Cc1ccc2c(c1)OCO2`, the activation was 0% (inactive).

Regarding `O=C(OCc1cc(=O)n2c(n1)sc1ccccc12)c1ccc(O)cc1O`, the activation is 0.076% (inactive).

As to `COc1cc(/C=C/C(=O)c2ccc3c(c2)OCCO3)cc(Br)c1OCC(=O)N(C)C`, the activation was -0.06% (inactive).

For `CCn1nc(C)cc1-c1nnc(Sc2ncc([N+](=O)[O-])s2)n1C`, the activation was -0.032% (inactive).

In the case of `CC(=O)c1cccc(-c2ccc3c(c2)C(C)(Cc2ccc(S(C)(=O)=O)cc2)C(=O)N3)c1` (stereo unspecified), the activation is -0.032% (inactive).

Take `O=C(COC(=O)c1cc(=O)[nH]c(=O)[nH]1)Nc1cccc(S(=O)(=O)N2CCCCC2)c1`: the activation was 0.052% (inactive).

In the case of `COc1ccc(CCCc2nc3ccccc3[nH]2)cc1`, the activation is -0.001% (inactive).

In the case of `CCC(=O)OCCNc1cc(Sc2nc3ccccc3[nH]2)c2nonc2c1[N+](=O)[O-]`, the activation was -0.037% (inactive).

Regarding `COc1cc(/C=C/c2ccc3cccc(O)c3n2)cc(OC)c1OC`, the activation was -0.032% (inactive).

On to `CC(C)N1C(=O)C(=O)N(CC(=O)N2CCc3ccccc32)C1=O`, for which the activation is -0.031% (inactive).

With `CC(C)(C)[S@@](=O)N1Cc2cc(C(=O)N3CCCCC3)nc(-c3cccc(-c4cccc(C#N)c4)c3)c2[C@H]1CCO`, the activation was -0.031% (inactive).

In the case of `CCN1CCN(c2cc(C)c3cc(NC(=O)c4cccs4)ccc3n2)CC1`, the activation is -0.032% (inactive).

With `O=[N+]([O-])c1ccc(Sc2nnnn2-c2ccccc2)nc1`, the activation is -0.121% (inactive).

For `COCCCn1c(C)cc(C(=O)COC(=O)CCc2nc3ccccc3c(=O)[nH]2)c1C`, the activation was 0.39% (inactive).

As to `COc1ccc(COc2ccccc2C(=O)NCc2ccccc2)cc1F`, the activation was -0.07% (inactive).

Regarding `Cc1ccsc1C1Nc2ccccc2-c2nc3ccccc3n21` (stereo unspecified), the activation was -0.047% (inactive).

Take `CCN(CC)CCCNC1=C(Cl)C(=O)c2ccccc2C1=O`: the activation was -0.032% (inactive).

Consider `O=C(O)c1cccnc1C(=O)N1CCc2c([nH]c3ccccc23)C1C(F)(F)F` (stereo unspecified), for which the activation was 0.006% (inactive).

`Cc1cccc(OCC(=O)N(C)c2c(N)n(Cc3ccccc3)c(=O)[nH]c2=O)c1C`: the activation is 0.012% (inactive).

In the case of `Cc1ccc(S(=O)(=O)N2CCN(C(=O)COC(=O)c3ccccc3OC(F)F)CC2)c(C)c1`, the activation was -0.006% (inactive).

Consider `COC(=O)C(C(C)C)N1CCc2c(C)nc3c(C#N)cnn3c21` (stereo unspecified), for which the activation was 0.052% (inactive).

As to `COc1ccc(CN(C)C[C@H]2OCCCC[C@@H](C)Oc3ccc(NC(=O)Nc4ccc(F)cc4)cc3C(=O)N([C@@H](C)CO)C[C@H]2C)cc1`, the activation is 3.19% (inactive).

Consider `Cc1cccc(NC(=O)Cn2cnc3c(oc4nc5c(cc43)COC(C)(C)C5)c2=O)c1`, for which the activation is 4.42% (inactive).

Take `COC(=O)c1cc(NS(=O)(=O)c2ccc(NC(C)=O)cc2)ccc1Cl`: the activation is -0.044% (inactive).

As to `O=C(NCCOc1ccccc1)c1cc([N+](=O)[O-])ccc1N1CCOCC1`, the activation was 0.193% (inactive).

As for `CC(C)(C=O)C1=CC(=O)c2ccccc2C1=O`, the activation is -0.07% (inactive).

Consider `COc1ccccc1CN1CC[C@H]2[C@H](CO)Nc3ccc(C#Cc4ccccc4)cc3[C@H]21`, for which the activation is 0% (inactive).

For the molecule `COCCN(C(=S)Nc1cccc(C)c1)C(C)c1cccnc1` (stereo unspecified), the activation was 0.005% (inactive).

For `O=C1Nc2ccccc2/C1=C/c1ccccc1Cl`, the activation is -0.034% (inactive).

Consider `COc1ccc(S(=O)(=O)N(C)C[C@H]2OCCCC[C@@H](C)Oc3ccc(NC(=O)NC(C)C)cc3C(=O)N([C@@H](C)CO)C[C@H]2C)cc1`, for which the activation is -0.013% (inactive).

On to `COc1ccc(NC(=O)N(C)[C@H]2C[C@H]3c4[nH]c5ccc(-c6ccc(OC)cc6)cc5c4CCN3C(=O)[C@H]2[C@H](C)O)cc1`, for which the activation was 0.523% (inactive).

Regarding `COc1cc(CN2CCC(C(=O)NCC(C)(C)CN(C)C)CC2)ccc1OCc1ccccc1`, the activation is -0.029% (inactive).

In the case of `Clc1ccc(-c2nc(-c3ccncc3)no2)c(Cl)c1`, the activation was -0.034% (inactive).

Regarding `CN(c1ccccc1)S(=O)(=O)c1ccc(C(=O)NCC(c2ccco2)N2CCCCC2)cc1` (stereo unspecified), the activation was -0.009% (inactive).

Turning to `Cc1cc(C(=O)NCc2cc(F)cc3c2OCOC3)nn1C`, the activation is -0.037% (inactive).

`Cc1cccc(-c2ccc([C@@H]3[C@@H](CO)N4CCCCN(S(=O)(=O)c5ccccc5F)C[C@H]34)cc2)c1`: the activation is 0% (inactive).

Take `CCOC(=O)CSc1nnc(CCCCCN2C(=O)c3cccc4cccc(c34)C2=O)o1`: the activation is 0.013% (inactive).

For `C[C@H]1CCCCO[C@@H](CN(C)C(=O)Nc2ccc(C(F)(F)F)cc2)[C@@H](C)CN([C@@H](C)CO)C(=O)c2cc(NC(=O)CCC(F)(F)F)ccc2O1`, the activation is 0.048% (inactive).

In the case of `COc1ccc(/C=c2/sc3nc(-c4ccccc4)c(-c4ccccc4)n3c2=O)cc1`, the activation is -0.002% (inactive).

In the case of `Cc1n[nH]c(=S)n1/N=C/c1ccc(-c2ccc(Cl)cc2)o1`, the activation is 1.87% (inactive).

In the case of `Cc1ccc(C(=O)Cn2cncn2)cc1`, the activation was -0.053% (inactive).

As to `CCOC(=O)/C(C#N)=C/C=C1/C=CC=CN1C`, the activation was 0.071% (inactive).

As for `Nc1nc(C2CCOCC2)cs1`, the activation was -0.032% (inactive).

Regarding `O=c1[nH]nc(SCCS(=O)(=O)c2ccc(F)cc2)n1-c1ccccc1C(F)(F)F`, the activation is -0.024% (inactive).

Turning to `CC(=O)c1ccc(NC(=O)COC(=O)CCc2ccc(S(=O)(=O)N3CCOCC3)cc2)cc1`, the activation was 0.332% (inactive).

Turning to `C[C@H](CO)N1C[C@H](C)[C@H](CN(C)C(=O)Nc2ccc(F)cc2)Oc2ncc(C#Cc3cccc(F)c3)cc2C1=O`, the activation is -0.031% (inactive).

For the molecule `CO[C@@H]1CN(C)C(=O)c2cc(NS(C)(=O)=O)ccc2OC[C@H](C)N(C(=O)C2CCCC2)C[C@H]1C`, the activation was 0.988% (inactive).

On to `COc1ccc(N(C)S(=O)(=O)c2cccc(C(=O)NCC(c3cccs3)N(C)C)c2)cc1` (stereo unspecified), for which the activation was 0.036% (inactive).

As for `C[C@@H]1COc2cccc(NCCO)c2S(=O)(=O)N1`, the activation was 0.028% (inactive).

On to `CC(C)n1c(NCc2cc(Cl)ccc2O)nc2ccccc21`, for which the activation was -0.029% (inactive).

Consider `CC(=O)Nc1ccc(S(=O)(=O)N(C)c2ccc(OCC(=O)NCCc3ccccc3F)cc2)cc1`, for which the activation is -0.07% (inactive).

Regarding `C[C@H](CO)N1C[C@H](C)[C@H](CN(C)Cc2ccccc2)Oc2ccc(NS(C)(=O)=O)cc2C1=O`, the activation was -0.035% (inactive).

Turning to `C/C=C/c1ccc(C2[C@H]3CNC[C@@H]2N3Cc2cc(-c3ccccc3)on2)cc1` (stereo partly specified), the activation is -0.031% (inactive).

Consider `CCOC(=O)Cc1c(C)[nH]n(-c2ccccc2)c1=O`, for which the activation is 0.085% (inactive).

For `COC(=O)c1c(NC(=O)c2ccc(C)cc2)csc1C`, the activation was 0.018% (inactive).

As to `COc1cc(C(=O)NC(=S)Nc2cccc3nc(C)ccc23)cc(OC)c1OC`, the activation was 1% (inactive).

As for `Oc1cccc(/C=N/NC(=S)NCCN2CCOCC2)c1O`, the activation is -0.016% (inactive).

For the molecule `Cn1c(=O)[nH]c(=O)c2c1nc(SCCN1CCOCC1)n2CCCc1ccccc1`, the activation is -0.047% (inactive).

For the molecule `Cc1cc(C(=O)Nc2ccc(Cl)c(S(=O)(=O)N3CCOCC3)c2)c2ccccc2n1`, the activation was -0.053% (inactive).

`Cc1occc1C(=O)N/N=C/C(Br)=C\c1ccccc1`: the activation is -0.024% (inactive).

Regarding `NS(=O)(=O)c1cccc(-n2cnnn2)c1`, the activation is 0.065% (inactive).

`COc1ccc(NC(=O)C(=O)NCCC2CCCCN2S(=O)(=O)c2cccs2)cc1` (stereo unspecified): the activation was 6.11% (inactive).

On to `CC(C)C(NC(=O)c1ccc(F)cc1)C(=O)NCC1CCCO1` (stereo unspecified), for which the activation is 0.21% (inactive).

For `Cc1cccc(-c2ccc([C@H]3[C@H](CO)N4CCCCN(C(=O)NC(C)C)C[C@@H]34)cc2)c1`, the activation was 0.105% (inactive).

With `CCCn1c(SCC(=O)NCc2ccc(C)cc2)n[nH]c1=O`, the activation was -0.121% (inactive).

Turning to `Cc1nnc(SCc2cc(=O)oc3ccc4ccccc4c23)n1Cc1ccccc1`, the activation was -0.027% (inactive).

Consider `Cc1ccc(O)c(N=Nc2ccc(S(=O)(=O)N3CCCC3)cc2)c1`, for which the activation was 0.067% (inactive).

Staying with this assay, now noted: 68-5-11 mouse fibroblast XiGFP reporter, % GFP-positive imaging, 3 d; at 21 µM (top of the series); cells co-treated with 5-aza-dC sensitizer; scaled: neutral wells 0, ellipticine wells 100.
As for `CO[C@H](CN(C)C(=O)Nc1ccc(C(F)(F)F)cc1)[C@@H](C)CN(Cc1ccccc1Cl)[C@@H](C)CO`, the activation was 0% (inactive).
